Earlier results, collected in patent US10500182B2, “Compositions of ketogenic sources, micronutrients and phytochemicals for prophylaxis and mitigation of migraine headache” (priority 2018, dated 2019).

Experiments:
migraine [1] = conditions: oral and intravenous supplementation, migraineurs
migraine [2] = conditions: ten percent solution applied topically to the forehead and temples

| SMILES | reduction of migraine frequency and severity (migraine [1]) | migraine pain and nausea (migraine [2]) |
| --- | --- | --- |
| [Mg+2] [magnesium, Magnesium] | more than 40% | – |
| CC1CCC(C(C)C)C(O)C1 (centres unmarked) [menthol] | – | effective at terminating migraine pain and easing nausea |
